Laboratory results reported in patent US11389424B2, “Methods and compositions for treating chemotherapy-induced diarrhea” (NAPO PHARMACEUTICALS, INC., priority 2017, dated 2022).
Where two headings read alike, the source gives them in different places.

Legend:
[1] = system: recurrent, cutaneous mast cell tumors; details: cited from earlier work
[2] = 9-month toxicity study (WIL-288022), oral (capsule) administration of enteric-coated crofelemer tablets; design: species or system beagle dogs; details: dog, in vivo
Procedure: The dose for this study was based on data obtained from a pilot study that assessed the clinical effectiveness of crofelemer (SP-303) in alleviating clinical signs associated with secretory diarrhea in dogs (CANA-001) and the wide margin of safety established in 30-day (WIL-288006) and 9-month (WIL-288022) toxicity studies. Chronic safety of crofelemer in dogs was studied in a 9-month study during which tablets were administered in capsules once daily, 7 days per week, for 273 or 274 days to three groups of beagle dogs. Dosage levels were 50, 175 and 600 mg/kg/day, plus a concurrent control group. Based on the results of this study, the no-observed-adverse-effect level (NOAEL) for oral (capsule) administration of enteric-coated crofelemer tablets to dogs for 273 or 274 consecutive days was 50 mg/kg/day. […] Thus, the no effect level is estimated to be between 50 and 175 mg/kg/day.

| Molecule | objective response (primary effectiveness endpoint) ([1]; end of the six-week masked phase, vs placebo 8%, p<0.001) [%] | all grade diarrhea ([1]; masked phase) [%] | grade 3-4 diarrhea ([1]; masked phase) [%] | any grade diarrhea ([1]; masked plus open label phases) [%] | grade 3-4 diarrhea ([1]; masked plus open label phases) [%] | primary adverse effect at the higher dosages [2] |
| --- | --- | --- | --- | --- | --- | --- |
| Cc1[nH]c(/C=C2\C(=O)Nc3ccc(F)cc32)c(C)c1C(=O)NCCN1CCCC1.O=P(O)(O)O [toceranib phosphate, Toceranib phosphate] | 37 | 46 | 7 | 59 | 8 |  |
| Crofelemer |  |  |  |  |  | gastrointestinal irritation |
